Reference: patent US20260274814A1, “THIENYL COMPOUNDS FOR THE TREATMENT OF A CENTRAL NERVOUS SYSTEM DISEASE OR DISORDER” (Coreterra Therapeutics, Inc., priority 2023, published 2026)
Where a name gives a salt, the structure may show the parent alone.

Test system: mice
Experiment: Neuropharmacological Assay (SmartCube): automated behavioral signature of compound-treated mice compared with a database of reference drug classes
Assay type: in vivo
Details: for AD / AG / AN / AP / CE / HL / PS / SH / AX / MS / UK: probability that activity matches this class of agents, 3.0 mg/kg i.p., 15 min before test
Description: Neurosci. 2011 Sep. 9; 5: 103 (doi: 10.3389/fnins.2011.00103) (“Roberds”). As reported in Roberds, because psychiatric diseases generally result from disorders of cell-cell communication or circuitry, intact systems are useful in detecting improvement in disease-relevant endpoints. These endpoints are typically behavioral in nature, often requiring human observation and interpretation. To facilitate testing of multiple compounds for behavioral effects relevant to psychiatric disease, PsychoGenics, Inc. (Tarrytown, NY, “PGI”) developed SmartCube™ an automated system in which behaviors of compound-treated mice are captured by digital video and analyzed with computer algorithms. (D. Brunner et al. Drug Discov. Today 2002, 7:S107-S112). PGI Analytical Systems uses data from SmartCube™ to compare the behavioral signature of a test compound to a database of behavioral signatures obtained using a large set of diverse reference compounds. (The composition of the database as well as validation of the method is further described in Roberds). In this way, the neuropharmacological effects of a test compound can be predicted by similarity to major classes of compounds, such as antipsychotics, anxiolytics and antidepressants.
The SmartCube™ system produces an activity signature indicating the probability that the activity of the test compound at the administered dose matches a given class of neuropharmacological agents. (See, e.g., Roberds, FIGS. 2 and 3). The test compound is simultaneously compared against multiple classes of agents; thus, a separate probability is generated for each behavioral effect measured (e.g., anxiolytic activity, analgesic activity, etc.). In table 2 below, these probabilities are reported for each behavioral effect measured as described in Table 1 below.
Provided compounds were dissolved in a mixture of Pharmasolve™ (N-methyl-2-pyrrolidone), polyethylene glycol and propylene glycol, and were injected i.p. 15 min. before the behavioral test. For each compound, injections were administered at 3 different doses. For each behavioral effect measured, results for the 3.0 mg/kg dose are presented. The potency of many of the compounds in the table was also determined in the SmartCube™ system. Test compounds were routinely examined at dose levels of 0.3, 1, 3 and 10 mg per kg (mpk), although the dose range was increased or decreased, if necessary, to obtain a full dose response curve. A compound's minimal effective dose (MED) is a measure of the compound's potency. The MED was defined as the dose (in mpk) having 45% or more total activity in SmartCube. If only one dose was tested, that dose is shown in the MED column of Table 2 even though the dose is not known to be the MED.

[1] = dose having 45% or more total activity in SmartCube, i.p., if only one dose was tested, that dose is shown, hydrochloride

CNC1CCc2c(csc2C(F)(F)F)C1 (single isomer, unassigned) [Compound 63, N-methyl-1-(trifluoromethyl)-4,5,6,7-tetrahydro-2-benzothiophen-5-amine hydrochloride]
MED (minimal effective dose) [1]: 1.0 mpk | AD: + (≥4%) | AG: ND (^ <4%) | AN: ND (^ <4%) | AP: ND (^ <4%) | CE: ND (^ <4%) | HL: ND (^ <4%) | PS: ND (^ <4%) | SH: ND (^ <4%) | AX (hydrochloride, 3 mg/kg): +++ (≥49%) | MS (hydrochloride, 3 mg/kg): + (≥4%) | UK (hydrochloride, 3 mg/kg): ND (^ <4%)

CNC1CCc2c(csc2C(F)(F)F)C1 (single isomer, unassigned) [Compound 64, N-methyl-1-(trifluoromethyl)-4,5,6,7-tetrahydro-2-benzothiophen-5-amine hydrochloride]
MED (minimal effective dose) [1]: 10 mpk | AD: + (≥4%) | AG: ND (^ <4%) | AN: ND (^ <4%) | AP: ND (^ <4%) | CE: ND (^ <4%) | HL: ND (^ <4%) | PS: ND (^ <4%) | SH: ND (^ <4%) | AX (hydrochloride, 3 mg/kg): ND (^ <4%) | MS (hydrochloride, 3 mg/kg): ND (^ <4%) | UK (hydrochloride, 3 mg/kg): ++ (≥24%)

Cc1csc2c1CCC(N)C2 (single isomer, unassigned) [Compound 65, 3-methyl-4,5,6,7-tetrahydrobenzothiophen-6-amine hydrochloride]
MED (minimal effective dose) [1]: 3 mpk | AG: ND (^ <4%) | AN: ND (^ <4%) | AX: ND (^ <4%) | CE: ND (^ <4%) | MS: ND (^ <4%) | SH: ND (^ <4%) | UK: ND (^ <4%) | AD (hydrochloride, 3 mg/kg): +++ (≥49%) | AP (hydrochloride, 3 mg/kg): ND (^ <4%) | HL (hydrochloride, 3 mg/kg): + (≥4%) | PS (hydrochloride, 3 mg/kg): + (≥4%)

Cc1csc2c1CCC(N)C2 (single isomer, unassigned) [Compound 66, 3-methyl-4,5,6,7-tetrahydrobenzothiophen-6-amine hydrochloride]
MED (minimal effective dose) [1]: 1 mpk | AG: ND (^ <4%) | AN: ND (^ <4%) | AX: ND (^ <4%) | CE: ND (^ <4%) | MS: ND (^ <4%) | SH: ND (^ <4%) | UK: ND (^ <4%) | AD (hydrochloride, 3 mg/kg): ND (^ <4%) | AP (hydrochloride, 3 mg/kg): ++++ (≥74%) | HL (hydrochloride, 3 mg/kg): ND (^ <4%) | PS (hydrochloride, 3 mg/kg): ND (^ <4%)

Cc1sc2c(c1C)CCC(N)C2 (single isomer, unassigned) [Compound 67, 2,3-dimethyl-4,5,6,7-tetrahydrobenzothiophen-6-amine hydrochloride]
minimal effective dose (Mus musculus, ip, dose having 45% or more total activity in SmartCube, i.p., if only one dose was tested, that dose is shown, read-out: MED (minimal effective dose)): 3 mg/kg | AG: ND (^ <4%) | AN: ND (^ <4%) | AP: ND (^ <4%) | AX: ND (^ <4%) | CE: ND (^ <4%) | MS: ND (^ <4%) | PS: ND (^ <4%) | SH: ND (^ <4%) | UK: ND (^ <4%) | AD (hydrochloride, 3 mg/kg): +++ (≥49%) | HL (hydrochloride, 3 mg/kg): ND (^ <4%)

Cc1sc2c(c1C)CCC(N)C2 (single isomer, unassigned) [Compound 68, 2,3-dimethyl-4,5,6,7-tetrahydrobenzothiophen-6-amine hydrochloride]
MED (minimal effective dose) (dose having 45% or more total activity in SmartCube, i.p., if only one dose was tested, that dose is shown): 3 mpk | AG: ND (^ <4%) | AN: ND (^ <4%) | AP: ND (^ <4%) | AX: ND (^ <4%) | CE: ND (^ <4%) | MS: ND (^ <4%) | PS: ND (^ <4%) | SH: ND (^ <4%) | UK: ND (^ <4%) | AD (hydrochloride, 3 mg/kg): ++ (≥24%) | HL (hydrochloride, 3 mg/kg): + (≥4%)

CNC1CCc2scc(C)c2C1.Cl (single isomer, unassigned) [Compound 69, N, 3-dimethyl-4,5,6,7-tetrahydrobenzothiophen-5-amine hydrochloride]
MED (minimal effective dose) [1]: 3 mpk | AD: ND (^ <4%) | AG: ND (^ <4%) | AN: ND (^ <4%) | CE: ND (^ <4%) | HL: ND (^ <4%) | MS: ND (^ <4%) | PS: ND (^ <4%) | SH: ND (^ <4%) | AP (hydrochloride, 3 mg/kg): ND (^ <4%) | AX (hydrochloride, 3 mg/kg): ND (^ <4%) | UK (hydrochloride, 3 mg/kg): +++ (≥49%)

CNC1CCc2scc(C)c2C1.Cl (single isomer, unassigned) [Compound 70, N, 3-dimethyl-4,5,6,7-tetrahydrobenzothiophen-5-amine hydrochloride]
MED (minimal effective dose) [1]: 1 mpk | AD: ND (^ <4%) | AG: ND (^ <4%) | AN: ND (^ <4%) | CE: ND (^ <4%) | HL: ND (^ <4%) | MS: ND (^ <4%) | PS: ND (^ <4%) | SH: ND (^ <4%) | AP (hydrochloride, 3 mg/kg): +++ (≥49%) | AX (hydrochloride, 3 mg/kg): + (≥4%) | UK (hydrochloride, 3 mg/kg): ND (^ <4%)

CNC1CCc2csc(F)c2C1 (single isomer, unassigned) [Compound 73, 3-fluoro-N-methyl-4,5,6,7-tetrahydro-2-benzothiophen-5-amine hydrochloride]
MED (minimal effective dose) [1]: 1 mpk | AG: ND (^ <4%) | AN: ND (^ <4%) | CE: ND (^ <4%) | HL: ND (^ <4%) | MS: ND (^ <4%) | PS: ND (^ <4%) | SH: ND (^ <4%) | UK: ND (^ <4%) | AD (hydrochloride, 3 mg/kg): ND (^ <4%) | AP (hydrochloride, 3 mg/kg): ND (^ <4%) | AX (hydrochloride, 3 mg/kg): ++++ (≥74%)

CNC1CCc2csc(F)c2C1 (single isomer, unassigned) [Compound 74, 3-fluoro-N-methyl-4,5,6,7-tetrahydro-2-benzothiophen-5-amine hydrochloride]
MED (minimal effective dose) [1]: 3 mpk | AG: ND (^ <4%) | AN: ND (^ <4%) | CE: ND (^ <4%) | HL: ND (^ <4%) | MS: ND (^ <4%) | PS: ND (^ <4%) | SH: ND (^ <4%) | UK: ND (^ <4%) | AD (hydrochloride, 3 mg/kg): + (≥4%) | AP (hydrochloride, 3 mg/kg): ++++ (≥74%) | AX (hydrochloride, 3 mg/kg): ND (^ <4%)

CNC1CCc2c(csc2F)C1 (single isomer, unassigned) [Compound 75, 1-fluoro-N-methyl-4,5,6,7-tetrahydro-2-benzothiophen-5-amine hydrochloride]
MED (minimal effective dose) [1]: 1 mpk | AD: ND (^ <4%) | AG: ND (^ <4%) | AN: ND (^ <4%) | CE: ND (^ <4%) | HL: ND (^ <4%) | MS: ND (^ <4%) | PS: ND (^ <4%) | SH: ND (^ <4%) | UK: ND (^ <4%) | AP (hydrochloride, 3 mg/kg): ++++ (≥74%) | AX (hydrochloride, 3 mg/kg): ND (^ <4%)

CNC1CCc2c(csc2F)C1 (single isomer, unassigned) [Compound 76, 1-fluoro-N-methyl-4,5,6,7-tetrahydro-2-benzothiophen-5-amine hydrochloride]
MED (minimal effective dose) [1]: 3 mpk | AD: ND (^ <4%) | AG: ND (^ <4%) | AN: ND (^ <4%) | CE: ND (^ <4%) | HL: ND (^ <4%) | MS: ND (^ <4%) | PS: ND (^ <4%) | SH: ND (^ <4%) | UK: ND (^ <4%) | AP (hydrochloride, 3 mg/kg): ++ (≥24%) | AX (hydrochloride, 3 mg/kg): ++ (≥24%)
